For 29 molecules, IC50 results are on record in patent publication US8338465B2, “Cyclic carboxylic acid rhodanine derivatives for the treatment and prevention of tuberculosis” (priority 2006, dated 2012).

pIC50: −log10 of the molar value.

In the test the target is T1, dihydrolipoamide acyltransferase (DlaT) (Mycobacterium tuberculosis, UniProt P9WIS7).
T1 sequence (P9WIS7 1-553): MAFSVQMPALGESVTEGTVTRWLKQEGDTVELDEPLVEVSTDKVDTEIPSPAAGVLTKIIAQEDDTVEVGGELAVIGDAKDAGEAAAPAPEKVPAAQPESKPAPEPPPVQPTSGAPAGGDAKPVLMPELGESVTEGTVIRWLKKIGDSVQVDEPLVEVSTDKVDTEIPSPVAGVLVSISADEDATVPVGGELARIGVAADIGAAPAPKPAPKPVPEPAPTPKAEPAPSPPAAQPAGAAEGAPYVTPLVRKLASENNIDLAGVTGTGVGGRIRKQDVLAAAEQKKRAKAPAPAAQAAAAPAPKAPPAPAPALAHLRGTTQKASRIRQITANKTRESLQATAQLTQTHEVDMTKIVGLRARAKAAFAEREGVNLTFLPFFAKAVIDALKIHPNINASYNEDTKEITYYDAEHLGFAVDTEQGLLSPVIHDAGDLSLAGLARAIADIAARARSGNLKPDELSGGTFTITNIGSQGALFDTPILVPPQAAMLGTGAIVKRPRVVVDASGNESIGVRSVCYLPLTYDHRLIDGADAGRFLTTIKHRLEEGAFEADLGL
Kind of test: DlaT inhibition (Dlat IC50); DTNB peroxidase assay with Lpd, DlaT and AhpD. Type of test: biochemical. The settings on record: Dlat IC50 category.
For the molecule `CC(=O)c1ccc(-c2ccc(C=C3SC(=S)N(C4CCCC(C(=O)O)C4)C3=O)o2)cc1` (centres unmarked) [Compound C40, 3-{5-[1-[5-(4-acetyl-phenyl)-furan-2-yl]-methylidene]-4-oxo-2-thioxo-thiazolidin-3-yl}-cyclohexanecarboxylic acid], the pIC50 – broadly, −log10 of the IC50, conventionally taken in molar units – was more than 5.00.

Consider `O=C(O)C1CCCC(N2C(=O)C(=Cc3ccc(-c4ccccc4F)o3)SC2=S)C1` (centres unmarked) [Compound C41, 3-{5-[1-[5-(2-fluoro-phenyl)-furan-2-yl]-methylidene]-4-oxo-2-thioxo-thiazolidin-3-yl}-cyclohexanecarboxylic acid], for which the pIC50 is more than 5.00.

`O=C(O)C1CCCC(N2C(=O)C(=Cc3ccc(-c4cccc(CO)c4)o3)SC2=S)C1` (centres unmarked) [Compound C42, 3-{5-[1-[5-(3-hydroxymethyl-phenyl)-furan-2-yl]-methylidene]-4-oxo-2-thioxo-thiazolidin-3-yl}-cyclohexanecarboxylic acid] had a pIC50 of more than 5.00.

In turn, `O=C(O)C1CCCC(N2C(=O)C(=Cc3ccc(-c4ccc(F)cc4)o3)SC2=S)C1` (centres unmarked) [Compound C43, 3-{5-[1-[5-(4-fluoro-phenyl)-furan-2-yl]-methylidene]-4-oxo-2-thioxo-thiazolidin-3-yl}-cyclohexanecarboxylic acid] gave a pIC50 of more than 5.00.

Molecule `O=C(O)C1CCC(N2C(=O)C(=Cc3ccc(-c4ccccc4F)o3)SC2=S)CC1` (centres unmarked) [Compound C44, 4-{5-[1-[5-(2-fluoro-phenyl)-furan-2-yl]-methylidene]-4-oxo-2-thioxo-thiazolidin-3-yl}-cyclohexanecarboxylic acid] had a pIC50 of more than 5.00.

Consider `Cc1ccc(-c2ccc(C=C3SC(=S)N(C4CCC(C(=O)O)CC4)C3=O)o2)cc1` (centres unmarked) [Compound C45, 4-{4-oxo-2-thioxo-5-[1-(5-p-tolyl-furan-2-yl)-methylidene]-thiazolidin-3-yl}-cyclohexanecarboxylic acid], for which the pIC50 was more than 5.00.

`Cc1ccc(-c2ccc(C=C3SC(=S)N(C4CCC(C(=O)O)CC4)C3=O)o2)c(F)c1` (centres unmarked) [Compound C46, 4-{5-[1-[5-(2-fluoro-4-methyl-phenyl)-furan-2-yl]-methylidene]-4-oxo-2-thioxo-thiazolidin-3-yl}-cyclohexanecarboxylic acid] showed a pIC50 of more than 5.00.

Take `O=C(O)C1CCC(N2C(=O)C(=Cc3ccc(-c4ccccc4F)s3)SC2=S)CC1` (centres unmarked) [Compound C47, 4-{5-[1-[5-(2-fluoro-phenyl)-thiophen-2-yl]-methylidene]-4-oxo-2-thioxo-thiazolidin-3-yl}-cyclohexanecarboxylic acid]: the pIC50 is 4.40 to 4.96.

For the molecule `CCOc1ccc(-c2ccc(C=C3SC(=S)N(C4CCCC(C(=O)O)C4)C3=O)o2)cc1` (centres unmarked) [Compound C51, 3-{5-[1-[5-(4-ethoxy-phenyl)-furan-2-yl]-methylidene]-4-oxo-2-thioxo-thiazolidin-3-yl}-cyclohexanecarboxylic acid], the negative-log IC50 (pIC50) is more than 5.00.

Molecule `CCOc1ccc(-c2ccc(C=C3SC(=S)N(C4CCC(C(=O)O)CC4)C3=O)o2)cc1` (centres unmarked) [Compound C52, 4-{5-[1-[5-(4-ethoxy-phenyl)-furan-2-yl]-methylidene]-4-oxo-2-thioxo-thiazolidin-3-yl}-cyclohexanecarboxylic acid] had a pIC50 of more than 5.00.

`COc1ccc(-c2ccc(C=C3SC(=S)N(C4CCC(C(=O)O)CC4)C3=O)o2)cc1F` (centres unmarked) [Compound C53, 4-{5-[1-[5-(3-fluoro-4-methoxy-phenyl)-furan-2-yl]-methylidene]-4-oxo-2-thioxo-thiazolidin-3-yl}-cyclohexanecarboxylic acid] gave a pIC50 of more than 5.00.

`CSc1ccccc1-c1ccc(C=C2SC(=S)N(C3CCC(C(=O)O)CC3)C2=O)o1` (centres unmarked) [Compound C54, 4-{5-[1-[5-(2-methylsulfanyl-phenyl)-furan-2-yl]-methylidene]-4-oxo-2-thioxo-thiazolidin-3-yl}-cyclohexanecarboxylic acid]: the pIC50 was more than 5.00.

On to `O=C(O)C1CCC(N2C(=O)C(=Cc3ccc(-c4ccc(C(F)(F)F)cc4)o3)SC2=S)CC1` (centres unmarked) [Compound C55, 4-{4-oxo-2-thioxo-5-[1-[5-(4-trifluoromethyl-phenyl)-furan-2-yl]-methylidene]-thiazolidin-3-yl}-cyclohexanecarboxylic acid], for which the pIC50 was 4.40 to 4.96.

In the case of `O=C(O)C1CCCC(N2C(=O)C(=Cc3ccc(-c4ccc(Cl)cc4)o3)SC2=S)C1` (centres unmarked) [Compound C56, 3-{5-[1-[5-(4-chloro-phenyl)-furan-2-yl]-methylidene]-4-oxo-2-thioxo-thiazolidin-3-yl}-cyclohexanecarboxylic acid], the pIC50 was more than 5.00.

With `CCCCOc1ccc(-c2ccc(C=C3SC(=S)N(C4CCC(C(=O)O)CC4)C3=O)o2)cc1` (centres unmarked) [Compound C57, 4-{5-[1-[5-(4-butoxy-phenyl)-furan-2-yl]-methylidene]-4-oxo-2-thioxo-thiazolidin-3-yl}-cyclohexanecarboxylic acid], the pIC50 was 4.40 to 4.96.

As for `CS(=O)(=O)c1ccc(-c2ccc(C=C3SC(=S)N(C4CCCC(C(=O)O)C4)C3=O)o2)cc1` (centres unmarked) [Compound C58, 3-{5-[5-(4-Methanesulfonyl-phenyl)-furan-2-ylmethylene]-4-oxo-2-thioxo-thiazolidin-3-yl}-cyclohexanecarboxylic acid], the pIC50 was more than 5.00.

On to `CS(=O)(=O)c1ccc(-c2ccc(C=C3SC(=S)N(C4CCC(C(=O)O)CC4)C3=O)o2)cc1` (centres unmarked) [Compound C59, 4-{5-[5-(4-Methanesulfonyl-phenyl)-furan-2-ylmethylene]-4-oxo-2-thioxo-thiazolidin-3-yl}-cyclohexanecarboxylic acid], for which the pIC50 was more than 5.00.

`Cc1ccccc1-c1ccc(C=C2SC(=S)N(C3CCCC(C(=O)O)C3)C2=O)o1` (centres unmarked) [Compound C60, 3-{4-oxo-2-thioxo-5-[1-(5-o-tolyl-furan-2-yl)-methylidene]-thiazolidin-3-yl}-cyclohexanecarboxylic acid] gave a pIC50 of more than 5.00.

The molecule `Cc1ccccc1-c1ccc(C=C2SC(=S)N(C3CCC(C(=O)O)CC3)C2=O)o1` (centres unmarked) [Compound C61, 4-{4-oxo-2-thioxo-5-[1-(5-o-tolyl-furan-2-yl)-methylidene]-thiazolidin-3-yl}-cyclohexanecarboxylic acid] gave a pIC50 of 4.40 to 4.96.

The molecule `CSc1cccc(-c2ccc(C=C3SC(=S)N(C4CCCC(C(=O)O)C4)C3=O)o2)c1` (centres unmarked) [Compound C62, 3-{5-[1-[5-(3-methylsulfanyl-phenyl)-furan-2-yl]-methylidene]-4-oxo-2-thioxo-thiazolidin-3-yl}-cyclohexanecarboxylic acid] had a pIC50 of more than 5.00.

For the molecule `CSc1cccc(-c2ccc(C=C3SC(=S)N(C4CCC(C(=O)O)CC4)C3=O)o2)c1` (centres unmarked) [Compound C63, 4-{5-[1-[5-(3-methylsulfanyl-phenyl)-furan-2-yl]-methylidene]-4-oxo-2-thioxo-thiazolidin-3-yl}-cyclohexanecarboxylic acid], the pIC50 is more than 5.00.

Consider `CSc1ccc(-c2ccc(C=C3SC(=S)N(C4CCCC(C(=O)O)C4)C3=O)o2)cc1` (centres unmarked) [Compound C64, 3-{5-[1-[5-(4-methylsulfanyl-phenyl)-furan-2-yl]-methylidene]-4-oxo-2-thioxo-thiazolidin-3-yl}-cyclohexanecarboxylic acid], for which the pIC50 was more than 5.00.

Molecule `CSc1ccc(-c2ccc(C=C3SC(=S)N(C4CCC(C(=O)O)CC4)C3=O)o2)cc1` (centres unmarked) [Compound C65, 4-{5-[1-[5-(4-methylsulfanyl-phenyl)-furan-2-yl]-methylidene]-4-oxo-2-thioxo-thiazolidin-3-yl}-cyclohexanecarboxylic acid] had a pIC50 of more than 5.00.

The molecule `CC(C)Oc1ccc(-c2ccc(C=C3SC(=S)N(C4CCCC(C(=O)O)C4)C3=O)o2)cc1` (centres unmarked) [Compound C66, 3-{5-[5-(4-Isopropoxy-phenyl)-furan-2-ylmethylene]-4-oxo-2-thioxo-thiazolidin-3-yl}-cyclohexanecarboxylic acid] gave a pIC50 of more than 5.00.

`CC(C)Oc1ccc(-c2ccc(C=C3SC(=S)N(C4CCC(C(=O)O)CC4)C3=O)o2)cc1` (centres unmarked) [Compound C67, 4-{5-[5-(4-Isopropoxy-phenyl)-furan-2-ylmethylene]-4-oxo-2-thioxo-thiazolidin-3-yl}-cyclohexanecarboxylic acid] gave a pIC50 of more than 5.00.

With `Cc1ccc(-c2cccc(C=C3SC(=S)N(C4CCCC(C(=O)O)C4)C3=O)c2)cc1` (centres unmarked) [Compound C68, 3-{5-[1-(4′-methyl-biphenyl-3-yl)-methylidene]-4-oxo-2-thioxo-thiazolidin-3-yl}cyclohexanecarboxylic acid], the pIC50 was 4.10 to 4.39.

Molecule `Cc1ccc(-c2cccc(C=C3SC(=S)N(C4CCC(C(=O)O)CC4)C3=O)c2)cc1` (centres unmarked) [Compound C69, 4-{5-[1-(4′-methyl-biphenyl-3-yl)-methylidene]-4-oxo-2-thioxo-thiazolidin-3-yl}-cyclohexanecarboxylic acid] had a pIC50 of more than 5.00.

In the case of `O=C(O)C1CCCC(N2C(=O)C(=Cc3ccc(-c4ccccc4-c4ccccc4)o3)SC2=S)C1` (centres unmarked) [Compound C70, 3-{5-[1-(5-biphenyl-2-yl-furan-2-yl)-methylidene]-4-oxo-2-thioxo-thiazolidin-3-yl}-cyclohexanecarboxylic acid], the pIC50 is more than 5.00.

`O=C(O)C1CCC(N2C(=O)C(=Cc3ccc(-c4ccccc4-c4ccccc4)o3)SC2=S)CC1` (centres unmarked) [Compound C71, 4-{5-[1-(5-biphenyl-2-yl-furan-2-yl)-methylidene]-4-oxo-2-thioxo-thiazolidin-3-yl}-cyclohexanecarboxylic acid] showed a pIC50 of more than 5.00.
